EP0400562A1, “Pyrrolopyrimidines, their production and use as tumoricidal agents” (Takeda Chemical Industries, Ltd., priority 1989, dated 1990)
Values after ≈ are worked out from the molar mass of the structure shown.

System: Human epidermoid carcinoma KB cells
Test: cell growth inhibiting effect in KB cells (MTT method)
Format: cell-based
Details: 72 hours culture with compound, absorbance at 590nm, concentration required to decrease the number of cells in the untreated control group by 50%
Protocol: The cell growth inhibiting effect (IC₅₀)of the compounds obtained in the Examples described below in KB cells was determined by the following method.
Human epidermoid carcinoma KB cells (1 x 10⁴ cells/ml) prepared according to a conventional method were inoculated into each well of the 96-microwell plate (0.1ml in a well) and subjected to standing culture at 37°C under 5% CO₂ for 24 hours. To this was added a solution of one of the compounds obtained in the Examples in 10% MEM (Nissui Pharmaceutical Co. Ltd. Japan), and subjected again to standing culture at 37°C under 5% CO₂ for 72 hours. Then the culture was pipetted out, and another 0.1ml of the solution of MTT (Dojin Laboratories Japan) in 10 % MEM (1.0mg/ml) was added and incubated at 37°C for 4 hours. Then 0.1ml of the […] (Wako Pure Chemicals, Japan) was added and incubated at 37°C for further 24 hours. The absorbance at 590nm was measured and the IC₅₀ value of the compound was defined as the concentration of the compound required to decrease the number of cells in the untreated control group by 50%.

| SMILES | IC₅₀ | IC50 (Homo sapiens, read-out: IC₅₀) |
| --- | --- | --- |
| CN(CCC1CNc2nc(N)nc(N)c21)c1ccc(C(=O)N[C@@H](CCC(=O)O)C(=O)O)cc1 (stereo partly drawn) [Example 4, N-[4-[N-[2-(2,4-diamino-6,7-dihydro-5H-pyrrolo[2,3-d]pyrimidin-5-yl)ethyl]-N-methyl]aminobenzoyl]-L-glutamic acid] | 0.0025 µg/mL | – |
| CN(CCc1c[nH]c2nc(N)nc(N)c12)c1ccc(C(=O)N[C@@H](CCC(=O)O)C(=O)O)cc1 [Example 6, N-[4-[N-[2-(2,4-diamino-7H-pyrrolo[2,3-d]pyrimidin-5-yl)ethyl]-N-methyl]aminobenzoyl]-L-glutamic acid] | 0.0013 µg/mL | – |
| Nc1nc(N)c2c(n1)NCC2CCNc1ccc(C(=O)N[C@@H](CCC(=O)O)C(=O)O)cc1 (stereo partly shown) [Example 10] | 0.0025 µg/mL | – |
| CCCCCCCC(=O)Nc1nc(S)c2c(CNCc3ccc(C(=O)N[C@@H](CCC(=O)OCC)C(=O)OCC)cc3)c[nH]c2n1 [Example 13, diethyl N-[4-[N-(4-mercapto-2-octanoylamino-7H-pyrrolo[2,3-d]pyrimidin-5-ylmethyl)aminomethyl]benzoyl] -L-glutamate] | – | 5 ng/mL (≈ 7.8 nM) |
